Data as given in patent US6987105B2, “Synthesis and use of thienotriazolodiazepines” (Board of Supervisors of Louisiana State University And …, priority 2000, dated 2006).

Tests used:
[1] = test system: middle cerebral artery occlusion and reperfusion; assay: MCAO and reperfusion stroke model in PAF receptor Knock-out mice; format: in vivo, PAF-R deficient mice (PAF receptor Knock-out mice)
From the text: To study the properties of LAU-8080 in an animal model of stroke, the technique of occluding the middle cerebral artery (middle cerebral artery occlusion, “MCAO”) which has been adapted to the mouse was used. The mouse middle cerebral artery occlusion is a well-recognized model of focal stroke as neuronal damage occurs when ischemia-reperfusion damages the brain. Adult male mice (C57BL/6) weighing 22-25 grams were induced to anesthesia with 1/70/30% halothane/nitrous oxide/oxygen, on a temperature controlled blanket. A line of PAF-R deficient mice (PAF receptor Knock-out mice), as described in S. Ishi et al., “Impaired anaphylactic responses with intact sensitivity to endotoxin in mice lacking a platelet-activating factor,” J. Exp. Med., vol. 187, pp. 1779-1788 (1998), was also used. The common carotid and external carotid arteries were exposed and dissected from surrounding tissue; the right external carotid artery was ligated. The right common carotid was temporarily occluded. […]
(§1) Volumetric changes in infarcted brain regions in mice after 1 hour MCAO and 24-48 hours reperfusion was obtained by staining brain slices 1 mm thick with 2% 2,3,5-triphenyltetrazolium chloride (TTC). Quantitative analysis of the volume of the infarcted area was obtained by image-analysis.

[2] = test system: angiogenesis in the mouse cornea; assay: mouse corneal micropocket assay (PAF-induced angiogenesis); format: in vivo, mice
From the text: The mouse corneal micropocket assay according to the procedure of B. M. Kenyon et al., “A model of angiogenesis in the mouse cornea,” Invest. Ophthalmol. Vis. Sci. vol. 37, pp. 1625-1632 (1996), was used to test whether LAU-8080 would inhibit angiogenesis.
Mouse corneal micropocket assay: Corneal micropockets were created with a modified von Graefe knife in both eyes of 5- to 6-weeks old mice. Pellets containing vehicle of 0.1% BSA in PBS with 12% polyhydroxyethylmetacrylate (Hydron) were implanted in the corneas at 1 mm from the limbus of the mice for a control. For the PAF experiment, 500 ng cPAF was added to the pellet with vehicle. For the PAF-LAU experiment, mice were implanted with Hydron pellets containing 0.1% BSA in PBS, 500 ng CPAF, and then treated with the PAF antagonist LAU-8080 (30 μg/g body weight), i.p., once a day. Six days later, corneal pictures were taken under the microscope and vessel length and clock hours of circumferential neovascularization were measured.

photoreceptor cells = assay: light-induced retina damage model (bright light-treated photoreceptors); format: in vivo, Sprague-Dawley rats; conditions: rat, 30 mg/kg i.p. pretreatment
Procedure: The light-induced retina damage model selectively promotes the killing of photoreceptor cells as it occurs in age-related macular degeneration and retinitis pigmentosa.
Sprague-Dawley rats (150-175 g males) were dark adapted for 3 days. Two hours before light treatment they were injected i.p. with LAU-8080 (30 mg/kg) suspended in a vehicle (cyclo-dextrin) or just vehicle. A third group received no injection. Rats were placed in 5 inch diameter cylindrical lucite tubes which were then placed within an 8-light array of 10 inch diameter fluorescent lights (40 Watt, G.E. cool white; 350 μE/m^2·s; 25 klux) for up to 5 hours. After 10 days in darkness, eyes were collected and prepared for histology. […] The profile of the photoreceptor nuclear layer of the light+vehicle, light+vehicle+LAU-8080, and dark rat retinas were compared. The percent cell loss under each condition was calculated against the dark animal controls.

[3] = test system: PAF binding site of the synaptosomal, plasma membrane; conditions: cited from earlier work
[4] = test system: middle cerebral artery occlusion and reperfusion; assay: middle cerebral artery occlusion (MCAO) and reperfusion stroke model; format: in vivo, mice (C57BL/6)
From the text: To study the properties of LAU-8080 in an animal model of stroke, the technique of occluding the middle cerebral artery (middle cerebral artery occlusion, “MCAO”) which has been adapted to the mouse was used. The mouse middle cerebral artery occlusion is a well-recognized model of focal stroke as neuronal damage occurs when ischemia-reperfusion damages the brain. Adult male mice (C57BL/6) weighing 22-25 grams were induced to anesthesia with 1/70/30% halothane/nitrous oxide/oxygen, on a temperature controlled blanket. A line of PAF-R deficient mice (PAF receptor Knock-out mice), as described in S. Ishi et al., “Impaired anaphylactic responses with intact sensitivity to endotoxin in mice lacking a platelet-activating factor,” J. Exp. Med., vol. 187, pp. 1779-1788 (1998), was also used. The common carotid and external carotid arteries were exposed and dissected from surrounding tissue; the right external carotid artery was ligated. The right common carotid was temporarily occluded. A small arteriotomy to the external carotid artery was made so the occluding filament was introduced and advanced to the common carotid artery, and redirected into the internal carotid artery. The filament was advanced so that the blunted tip was placed in the anterior cerebral artery and the side of the filament occluded the origin of the middle cerebral artery. The common carotid artery was gently released, restoring blood flow to the carotid system. The wound was inspected for bleeding. All retracting sutures were removed, and the wound was closed. The anesthetic gases were stopped, and the animal was given oxygen until fully awake, then returned to his cage. After 60 minutes of occlusion, animals were reperfused by removal occluding filament. Animals were placed under anesthesia again, the occluding suture was delicately withdrawn from the arterial lumen, restoring blood flow to the territory of the middle cerebral artery. The wound was closed by interrupted silk sutures. The anesthetic gases were stopped, and the animal was given oxygen until fully awake.
The treated animals received a single i.p. injection of LAU-8080 (30 mg/kg) at 1 hour after reperfusion started, and control animals received vehicle injection (2-hydroxypropyl-β-cyclodextrin).
Scores were collected according Bederson's classification: a score of “0” indicates the animal moved freely changing directions. […]
as §1

[5] = test system: PAF binding sites of microsomal membranes; conditions: cited from earlier work

**Q.** Which results are given for `COc1ccc(NC(=S)N2CCc3c(sc4c3C(c3ccccc3Cl)=NCc3nnc(C)n3-4)C2)cc1` [LAU-8080, 6-(2-chlorophenyl)-9-[(4-methoxyphenyl)thiocarbamoyl]-1-methyl-7,8,9,10-tetrahydro-4H-pyrido[4′,3′:4,5]thieno[3,2-f]-1,2,4-triazolo[4,3-a]-1,4-diazepine]?
**A.** survival ([1]; PAF knock-out mice, injection one hour after reperfusion, p<0.0074): significative protection; infarct volume ([1]; PAF receptor Knock-out mice): small reduction; angiogenesis (vessel length and clock hours of circumferential neovascularization) ([2]; 500 ng cPAF pellet, LAU-8080 30 μg/g body weight i.p. once a day, 6 days, p<0.05): significantly reduced; cell loss in an area near the center of the photodamage region (photoreceptor cells): complete lack of cell loss; depth of photoreceptor nuclear layer (photoreceptor cells): 12 cells deep; displacement of PAF [3]: not from the synaptosomal, plasma membrane; neurological scores (Bederson's classification) ([4]; 30 mg/kg i.p. 1 hour after reperfusion, noticeable 24 hours after reperfusion): significative improvement; infarct volume ([4]; 1 hour MCAO and 48 hours reperfusion, injection 1 hour after reperfusion onset, p<0.0026): significant reduction; survival ([4]; 1 hour MCAO, single i.p. 30 mg/kg 1 hour after onset of reperfusion, followed-up 14 days, n=20, p<0.04 vs vehicle): 35%; effect of injection at different times during the procedure versus 1 hour after reperfusion ([4]; MCAO mice): did not differ significantly; displacement of PAF [5]: displace PAF from microsomal membranes

**Q.** Which “angiogenesis (vessel length and clock hours) induced by pellet” value ([2]; pellet with 500 ng cPAF, 6 days after implantation, versus vehicle pellet) does the source give for “1-O-alkyl-2-acetyl-sn-glycero-3-phosphocholine [PAF, reference compound]” here?
**A.** The value was “strongly induced”.
